The values that follow come from PMC4950071, “Reaction of pyranose dehydrogenase from Agaricus meleagris with its carbohydrate substrates” (The Febs Journal, 2015).

Experiment in all cases: steady-state kinetics, ferrocenium reduction
What all share (format): biochemical

The target in test [1] is T1, AmPDH (pyranose dehydrogenase from Agaricus meleagris; A. meleagris PDH1) (Macropsalliota meleagris, UniProt Q3L245, H581A).
T1 construct: C-terminal His6 tag; covalent FAD
Conditions: apparent; electron acceptor; 500 mM glucose fixed, 100 mM borate pH 8.5, 30 °C; read-out: Fc^+ / K M. From the text: (§1) steady-state kinetics, ferrocenium reduction on AmPDH (pyranose dehydrogenase from Agaricus meleagris; A. meleagris PDH1)

For test [2], the target named is T2, AmPDH (pyranose dehydrogenase from Agaricus meleagris; A. meleagris PDH1) (Macropsalliota meleagris, UniProt Q3L245, H128A).
T2 construct: C-terminal His6 tag; covalent FAD
T2 sequence (Q3L245 26-602 H128A): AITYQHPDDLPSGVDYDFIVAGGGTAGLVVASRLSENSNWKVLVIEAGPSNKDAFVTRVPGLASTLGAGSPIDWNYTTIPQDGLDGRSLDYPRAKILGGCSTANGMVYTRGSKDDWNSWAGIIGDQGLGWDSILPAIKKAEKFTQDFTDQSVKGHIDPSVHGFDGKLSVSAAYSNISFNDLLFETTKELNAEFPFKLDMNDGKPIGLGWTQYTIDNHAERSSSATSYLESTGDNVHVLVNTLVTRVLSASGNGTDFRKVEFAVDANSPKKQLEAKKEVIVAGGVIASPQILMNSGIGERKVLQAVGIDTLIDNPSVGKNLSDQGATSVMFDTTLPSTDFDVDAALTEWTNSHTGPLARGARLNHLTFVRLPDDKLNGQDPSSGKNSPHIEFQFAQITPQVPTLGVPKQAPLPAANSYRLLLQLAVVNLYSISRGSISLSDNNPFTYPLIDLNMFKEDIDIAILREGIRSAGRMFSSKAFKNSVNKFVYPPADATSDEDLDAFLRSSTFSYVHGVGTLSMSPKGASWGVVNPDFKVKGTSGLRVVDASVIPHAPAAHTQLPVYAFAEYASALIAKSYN
Conditions: apparent; electron acceptor; 50 mM glucose fixed, 100 mM borate pH 8.5, 30 °C; non-covalently bound FAD; read-out: Fc^+ / K M.
From the text: as §1

Test [3] concerns the target T3, AmPDH (pyranose dehydrogenase from Agaricus meleagris; A. meleagris PDH1) (Macropsalliota meleagris, UniProt Q3L245).
T3 construct: C-terminal His6 tag; covalent FAD
As to conditions: apparent; electron acceptor; 25 mM glucose fixed, 100 mM borate pH 8.5, 30 °C; read-out: Fc^+ / K M.
From the text: as §1

T1 sequence (Q3L245 26-602 H581A): as the sequence (Q3L245 26-602 H128A) above, with A103H, H556A counted along it
T3 sequence (Q3L245 26-602): as the sequence (Q3L245 26-602 H128A) above, with A103H counted along it

For the compound `C1=CCC=C1.C1=CCC=C1.[Fe+3]` [Fc^+, ferrocenium ion], the Km is 170 ± 10 µM in test [1], 160 ± 10 µM in test [2] and 170 ± 20 µM in test [3].
